# Assay results published in patent US20120302629A1, “BIOMARKERS FOR GOSSYPOL CHEMOTHERAPY AND METHODS OF TREATING DISEASE” (THE REGENTS OF THE UNIVERSITY OF MICHIGAN, priority 2009, published 2012).
# Tests used:
# 2LMP cells [1] = test: Cell death by trypan blue dye exclusion; type: cell-based, human
# Method: (§1) Cell Growth, Cell Death, and Apoptosis: Cell growth inhibition by (−)-gossypol was determined in a water-soluble tetrazolium (WST)-based assay, as described previously (Shangary et al., Proc. Natl. Acad. Sci. USA 105:3933 (2008)). Cell viability was determined by trypan blue due exclusion as described (Shangary et al., Proc. Natl. Acad. Sci. USA 105:3933 (2008)). Experiments were done in triplicate. To examine apoptosis, cells were stained with Annexin V and PI and analyzed by flow cytometery using an Annexin V-FITC staining kit (Roche Applied Science, Indianapolis, Ind.) according to manufacturer's instructions. Briefly, cells were treated and collected by centrifugation, washed with PBS once and then stained with annexinV-FITC and PI for 15 min at room temperature in the dark. Stained cells were analyzed in a FACS caliber flow cytometer. AnnexinV positive cells are considered as apoptotic cells.
# RKO colon cancer cells = test: Cell death after c-Myc knock-down; type: cell-based; details: p53 wild-type, c-Myc siRNA
# Method: as §1
# (§2) RNA interference: Gene specific double-stranded RNA oligonucleotide targeting Noxa, Puma, c-Myc, HIF1-α, E2F1#2, Bax, Bak, were purchased from Dharmacon RNAi technologies as Sigenome on-targetplus SMARTpool duplex (Lafayette, Colo.). SiRNA of E2F#1 was purchased from Santa Cruz. As a negative control, siRNA against GFP target sequence 5′-[…]-3′ was employed (Qiagen, Valencia, Calif.). […]
# [2] = tested on: Bcl-2 family proteins in PC-3 cells; test: Western blot of whole cell lysates; type: cell-based, human; details: 10 μM
# Method: (§3) Western blot assay: Proteins were harvested in RIPA buffer, then electrophoresed on 4-20% gradient SDS-PAGE gels (Invitrogen, Grand Island, N.Y.) and transferred to PVDF membranes. The membranes were blocked in 5% milk and then incubated with specific primary antibody, followed by secondary antibody. The signals were visualized with the chemiluminescent HRP antibody detection reagent (Deville Scientific, Metuchen, N.J.).
# [3] = tested on: Bcl-2 family proteins in 2LMP cells; test: Western blot of whole cell lysates; type: cell-based, human
# Method: as §3
# Bcl-2 = Bcl-2 (Homo sapiens, UniProt P10415); details: Wang et al., J. Med. Chem. 49:6139 (2006); cited from earlier work
# Chain of Bcl-2 (P10415 whole entry): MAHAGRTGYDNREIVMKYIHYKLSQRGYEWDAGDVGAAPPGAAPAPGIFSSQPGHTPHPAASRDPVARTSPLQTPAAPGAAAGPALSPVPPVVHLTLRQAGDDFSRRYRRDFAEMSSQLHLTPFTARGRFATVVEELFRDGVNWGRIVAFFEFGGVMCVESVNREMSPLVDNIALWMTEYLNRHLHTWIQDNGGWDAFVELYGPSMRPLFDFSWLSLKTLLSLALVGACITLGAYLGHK
# Bcl-xL = Bcl-xL (Homo sapiens, UniProt Q07817); details: Wang et al., J. Med. Chem. 49:6139 (2006); cited from earlier work
# Chain of Bcl-xL (Q07817 whole entry): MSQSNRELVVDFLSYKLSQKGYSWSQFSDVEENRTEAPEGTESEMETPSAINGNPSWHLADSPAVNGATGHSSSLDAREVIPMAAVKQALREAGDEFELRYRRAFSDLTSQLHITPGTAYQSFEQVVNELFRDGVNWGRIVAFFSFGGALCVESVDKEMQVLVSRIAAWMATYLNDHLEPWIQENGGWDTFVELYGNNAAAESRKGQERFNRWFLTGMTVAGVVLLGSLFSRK
# [4] = tested on: caspase-9 and -3/-7 in 2LMP cells; test: Fluorometric caspase activity assays; type: cell-based, human; details: 5 μM
# Method: Fluorometric caspase activity assays: Cells were harvested in cell lysis buffer provided by Biovision research products (Mountain View, Calif.). 20 μg of protein was evaluated for caspase activity by incubating with fluorogenic caspase-3 or -9 substrate (EMD Biosciences) in reaction buffer (Biovision). Detection of cleavage of substrate Ac-DEVD-AFC (preferentially cleaved by caspase-3) and Ac-LEHD-AFC (preferentially cleaved by caspase-9) were measured at a λexc=400 nm and λem=505 nm using a Telcan Ultra plate reader (Männedorf, Switzerland). Experiments were performed in triplicate.
# [5] = tested on: long form of Mcl-1 mRNA in 2LMP cells; test: Taqman real-time PCR; type: cell-based, human; details: 10 μm, 5-10 h time-points
# Method: (§4) Real-Time PCR: Total RNA was extracted by RNA miniprep kit (Sigma) from cells treated with or without of (−)-gossypol. cDNA was synthesized from 2 μg of RNA using cDNA reverse transcription kits (Applied Biosystems). Next, Taqman gene expression assays were performed using Noxa (Hs00560402_ml), Puma (Hs00248075_ml), Mcl-1 (Hs00172036_ml) gene specific primers/probe sets for real-time PCR in a ABI7900HT PCR machine. GAPDH (Hs99999905_ml) was used for normalization. Relative quantitation of mRNA was calculated by comparative cycle threshold (Ct) method.
# Noxa mRNA in 2LMP cells = test: Taqman real-time PCR; type: cell-based, human; details: 10 μm
# Method: as §4
# Puma mRNA in 2LMP cells = test: Taqman real-time PCR; type: cell-based, human; details: 10 μm
# Method: as §4
# PC-3 cells [6] = test: Apoptosis (Annexin V/PI flow cytometry) after siRNA knock-down; type: cell-based, human
# Method: as §1
# (§5) RNA interference: Gene specific double-stranded RNA oligonucleotide targeting Noxa, Puma, c-Myc, HIF1-α, E2F1#2, Bax, Bak, were purchased from Dharmacon RNAi technologies as Sigenome on-targetplus SMARTpool duplex (Lafayette, Colo.). SiRNA of E2F#1 was purchased from Santa Cruz. As a negative control, siRNA against GFP target sequence 5′-[…]-3′ was employed (Qiagen, Valencia, Calif.). Transfections were performed using Lipofectamine RNAiMAX, according to manufacturer's instructions (Invitrogen, Carlsbad, Calif.). (−)-Gossypol was added 24 h after transfection and cells were harvested after 18 h treatment of (−)-gossypol. Three independent knock down experiments were performed for each gene.
# 2LMP cells [7] = test: as above; type: cell-based, human
# Method: as §1, §5
# Mcl-1 = Mcl-1 (Homo sapiens, UniProt Q07820); details: Wang et al., J. Med. Chem. 49:6139 (2006); cited from earlier work
# Chain of Mcl-1 (Q07820 whole entry): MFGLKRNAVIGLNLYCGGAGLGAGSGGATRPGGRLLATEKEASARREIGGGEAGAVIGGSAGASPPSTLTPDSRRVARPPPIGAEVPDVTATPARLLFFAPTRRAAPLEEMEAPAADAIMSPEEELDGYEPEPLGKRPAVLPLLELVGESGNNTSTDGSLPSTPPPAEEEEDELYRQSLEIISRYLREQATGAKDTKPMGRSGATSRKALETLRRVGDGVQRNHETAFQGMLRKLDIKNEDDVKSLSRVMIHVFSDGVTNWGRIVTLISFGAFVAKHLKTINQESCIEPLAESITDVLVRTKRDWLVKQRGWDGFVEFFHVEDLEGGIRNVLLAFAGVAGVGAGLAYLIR
# MCF-12F cells = test: Cell death (trypan blue) and western blot in normal cells; type: cell-based, human
# Method: as §1, §3
# HMEC cells = test: as above; type: cell-based, human
# Method: as §1, §3
# FF (fibroblast) cells = test: as above; type: cell-based, human
# Method: as §1, §3
# [8] = tested on: 5 breast (MDA-MB-231, MDA-MB-436, MDA-MB-468, BT-549 and MCF-7) and 3 prostate (22Rv1, DU145 and LNCaP) cancer cell lines; test: Western blot in 8 additional cancer cell lines; type: cell-based, human; details: treated for 24 h, all 8 cancer cell lines
# Method: as §3
# wild-type MEF cells = test: Apoptosis (Annexin V/PI flow cytometry) in MEF cells; type: cell-based; details: 24 h
# Method: as §1
# MEF Bax/Bak KO cells = test: as above; type: cell-based; details: for cells to undergo apoptosis: 24 h
# Method: as §1
# DU145 cells = test: Cell death (trypan blue) after siRNA knock-down; type: cell-based, human
# Method: as §1, §2
# PC-3 cells [9] = test: WST cell growth assay; type: cell-based, human; details: (−)-gossypol 0.5 and 1 μM, 4 days
# Method: as §1
# MDA-MB-436 cells = test: WST cell growth assay; type: cell-based, human; details: (−)-gossypol 0.5 and 1 μM, 4 days
# Method: as §1
# 2LMP cells [10] = test: WST cell growth assay; type: cell-based, human; details: (−)-gossypol 0.5 and 1 μM, 4 days
# Method: as §1
# PC-3 cells [11] = test: Cell death by trypan blue dye exclusion; type: cell-based, human; details: 10 μM
# Method: as §1
smiles,measurement,setting,value
"CC(C)C[C@H](NC(=O)[C@H](Cc1ccccc1)NC(=O)c1cnccn1)B(O)O [bortezomib, reference compound]",cell death upon knock-down of c-Myc,"2LMP cells [1]; c-Myc siRNA, 24 h",blocked cell death
Cc1cc2c(C(C)C)c(O)c(O)c(C=O)c2c(O)c1-c1c(C)cc2c(C(C)C)c(O)c(O)c(C=O)c2c1O [(−)-gossypol],cell death induction upon c-Myc knock-down,RKO colon cancer cells,effective blockage
same,earliest time of clear Noxa protein induction,[2],4 h
same,earliest time of dramatic induction of the short forms of Mcl-1,[2],8 h
same,time of Puma protein upregulation,[2],8 h
same,earliest time of clear Noxa protein induction,[3]; 10 μM,4 h
same,earliest time of dramatic induction of the short forms of Mcl-1,[3]; 10 μM,8 h
same,time of Puma protein upregulation,[3]; 10 μM,8 h
same,Bcl-xL protein level,"[3]; 10 μM, 12 h time-point",significant down-regulation
same,lowest concentration with clear induction of Noxa and Puma,[3]; 24-h treatment (FIG. 8A),2.5 µM
same,binding affinity,Bcl-2,low to sub-micromolar
same,binding affinity,Bcl-xL,low to sub-micromolar
same,activity of caspase-9 and -3/-7 induced,[4]; 24 h treatment,7 fold
same,activity of caspase-9 and -3/-7 induced,[4]; 48 h treatment,> 60 fold
same,increase of the long form of Mcl-1 mRNA,[5],less than 3 fold
same,mRNA levels of Noxa increased,Noxa mRNA in 2LMP cells; 2.5 h time-point,2.3 fold
same,mRNA levels of Noxa increased,Noxa mRNA in 2LMP cells; 5 h time-point,9 fold
same,mRNA levels of Noxa increased,Noxa mRNA in 2LMP cells; 7.5 h time-point,24 fold
same,mRNA levels of Noxa increased,Noxa mRNA in 2LMP cells; 10 h time-point,37 fold
same,Puma mRNA increased,Puma mRNA in 2LMP cells; 2.5 h time-point,1.4 fold
same,Puma mRNA increased,Puma mRNA in 2LMP cells; 5 h time-point,5.4 fold
same,Puma mRNA increased,Puma mRNA in 2LMP cells; 7.5 h time-point,5 fold
same,Puma mRNA increased,Puma mRNA in 2LMP cells; 10 h time-point,4.3 fold
same,cell death induction blocked by knock-down of c-Myc,"PC-3 cells [6]; 10 μM, c-Myc siRNA",> 70%
same,effect of double knockdown of Bax/Bak on apoptosis induction,"PC-3 cells [6]; 18 h, Bax and Bak siRNA",no effect
same,apoptosis induction blocked by double knockdown of Bax/Bak,"2LMP cells [7]; 10 μM, 18 h, Bax and Bak siRNA",approximately 70%
same,cell death induction blocked by knock-down of c-Myc,"2LMP cells [7]; 10 μM, c-Myc siRNA",> 70%
same,apoptosis induction decreased by knock-down of Puma,"2LMP cells [7]; 18 h, Puma siRNA",30-50%
same,apoptosis induction reduced by knock-down of Noxa,"2LMP cells [7]; all the concentrations tested, 18 h, Noxa siRNA",> 50%
same,binding affinity,Mcl-1,low to sub-micromolar
same,Noxa induction,MCF-12F cells; 24-48 h treatment at 10 μM,not induced
same,cell death,MCF-12F cells; compared to 2LMP cells,minimal cell death
same,Noxa induction,HMEC cells; 24-48 h treatment at 10 μM,not induced
same,cell death,HMEC cells; compared to 2LMP cells,minimal cell death
same,Noxa induction,FF (fibroblast) cells; 24-48 h treatment at 10 μM,not induced
same,cell death,FF (fibroblast) cells; compared to 2LMP cells,minimal cell death
same,lowest concentration with significant upregulation of Noxa,[8],2.5 µM
same,cells to undergo apoptosis,wild-type MEF cells; 5 μM,29%
same,cells to undergo apoptosis,wild-type MEF cells; 10 μM,33%
same,cells to undergo apoptosis,MEF Bax/Bak KO cells; 5 μM,11%
same,cells to undergo apoptosis,MEF Bax/Bak KO cells; 10 μM,13%
same,cell death reduced in the Bax/Bak double knock-out,"MEF Bax/Bak KO cells; 20 μM, versus wild-type MEF",25%
same,effect of double knockdown of Bax/Bak on apoptosis induction,"DU145 cells; 18 h, Bax and Bak siRNA",modestly reduced
same,cell death induction upon c-Myc knock-down,"DU145 cells; p53-mutated, c-Myc siRNA",effective blockage
same,sensitization to ABT-737,PC-3 cells [9],effectively sensitize
same,sensitization to ABT-737,MDA-MB-436 cells,effectively sensitize
same,sensitization to ABT-737,2LMP cells [10],effectively sensitize
same,cells to undergo cell death,PC-3 cells [11]; 24 hour-treatment,30-40%
same,cells lost their viability,PC-3 cells [11]; 24 h time-point,approximately 40%
same,cells lost their viability,PC-3 cells [11]; 36 h time-point,approximately 70%
same,cells lost their viability,PC-3 cells [11]; 48 h time-point,~100%
same,cell death at time-points earlier than 12 h,PC-3 cells [11]; time course,no significant cell death
same,cells killed,"2LMP cells [1]; 2.5 μM, 48 h treatment",14%
same,cells to undergo cell death,"2LMP cells [1]; 10 μM, 24 hour-treatment (FIG. 1)",30-40%
same,cells lost their viability,"2LMP cells [1]; 10 μM, 24 h time-point",approximately 40%
same,cells lost their viability,"2LMP cells [1]; 10 μM, 36 h time-point",approximately 70%
same,cells lost their viability,"2LMP cells [1]; 10 μM, 48 h time-point",~100%
same,cell death at time-points earlier than 12 h,"2LMP cells [1]; 10 μM, time course",no significant cell death
